Test systems include 786-0; A498; BT-549; CAKI-1; COLO 205; EKVX; HL-60; HOP-92; IGROV-1; M14; MDA-MB-231; MDA-MB-435; NCI-H226; NCI-H522; OVCAR-4; SF-539; SK-MEL-5; SK-OV-3; SNB-19; U-251.
Test in all cases: DTP human tumour cell line panel, 48 h

The text below walks through data of ChEMBL document CHEMBL1201862, “PubChem BioAssay data set” (2004).

Each structure is given as a SMILES string.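 Each compound was tested at five concentrations against cells in 96-well plates for 48 hours. GI50 marks 50% less growth.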 Calls of active or inactive are those of the source. No stated cut-off is given here; in the data, active = GI50 up to about 1.1 µM and inactive = higher. Where only a bound is given, the exact number is not on record here.

Take `c1cncc(-c2cc(-c3cc(-c4cccnc4)[nH]n3)n[nH]2)c1`: the GI50 in the test on 786-0, with A498, in the test with BT-549, with CAKI-1, in the test with COLO 205 and with EKVX was > 100 µM (inactive) throughout. Besides, the GI50 in the test with HL-60, with HOP-92, in the test with IGROV-1, in the test on M14, in the test with MDA-MB-231 and in the test on MDA-MB-435 was > 100 µM (inactive) in each case. The GI50 in the test on NCI-H226, with NCI-H522, with OVCAR-4, with SF-539, in the test with SK-MEL-5 and in the test on SK-OV-3 was > 100 µM (inactive) each time. In addition, the GI50 in the test with SNB-19 and in the test on U-251 was > 100 µM (inactive) throughout.
As to `CO[C@@]12C[C@H](CNC(=O)c3ccc[nH]3)O[C@@H]1NC(=O)N2`, the GI50 in the test with 786-0, in the test with A498, with BT-549, with CAKI-1, in the test with COLO 205 and in the test with EKVX was > 100 µM (inactive) each time. The GI50 with HL-60, with HOP-92, with IGROV-1, in the test on M14, with MDA-MB-231 and with MDA-MB-435 was > 100 µM (inactive) each time. Also, the GI50 in the test with NCI-H226, in the test with NCI-H522, with OVCAR-4, in the test on SF-539, with SK-MEL-5 and in the test with SK-OV-3 was > 100 µM (inactive) throughout. Further, the GI50 in the test on SNB-19 and in the test on U-251 was > 100 µM (inactive) throughout.
With `Clc1ccc(/N=C/C=C/Nc2ccc(Cl)cn2)nc1`, the GI50 in the test with 786-0 is 5.65 µM (inactive); in the test on A498, 20.1 µM (inactive); in the test on BT-549, 17.2 µM (inactive); in the test on CAKI-1, 9.82 µM (inactive); with COLO 205, 12.6 µM (inactive); in the test on EKVX, 0.714 µM (active). The GI50 is 2.12 µM (inactive) in the test on HL-60; 16.3 µM (inactive) with HOP-92; 15 µM (inactive) with IGROV-1; 16.4 µM (inactive) with M14; 5 µM (inactive) in the test with MDA-MB-231; 14.5 µM (inactive) in the test on MDA-MB-435. The GI50 in the test with NCI-H226 was 16.1 µM (inactive); with NCI-H522, 14 µM (inactive); in the test on OVCAR-4, 7.52 µM (inactive); in the test with SF-539 it was 17.3 µM (inactive); with SK-MEL-5 it was 13.7 µM (inactive); in the test on SK-OV-3, 21.8 µM (inactive). Besides, the values for the GI50 with SNB-19 and in the test on U-251 were 16 µM (inactive) and 8.26 µM (inactive), respectively.
With `BrC1=C(Br)C2(SCCS2)[C@H]2C[C@@H]1c1ccccc12`, the GI50 with 786-0 was 58.3 µM (inactive); with A498, > 100 µM (inactive); in the test on BT-549 it was 38.4 µM (inactive); in the test on CAKI-1, > 91.2 µM (inactive); in the test on COLO 205, 29.4 µM (inactive); with EKVX, 36.9 µM (inactive). In addition, the GI50 in the test on HL-60 was 20.9 µM (inactive); with HOP-92 it was > 59.2 µM (inactive); with IGROV-1, 55 µM (inactive); with M14 it was > 79.8 µM (inactive); in the test on MDA-MB-231, 60.8 µM (inactive); in the test on MDA-MB-435, 4.4 µM (inactive). For the same compound, the GI50 with NCI-H226 is 64.1 µM (inactive); with NCI-H522 it was 13.2 µM (inactive); in the test on OVCAR-4, 29.9 µM (inactive); with SF-539 it was 41.3 µM (inactive); with SK-MEL-5 it was 9.38 µM (inactive); in the test with SK-OV-3 it was > 46 µM (inactive). The GI50 in the test on SNB-19 is > 100 µM (inactive); in the test with U-251, 37.8 µM (inactive).
Turning to `N/N=C(\Nc1ccccc1)SCc1ccccc1`, the GI50 in the test with 786-0, in the test with A498, with BT-549, in the test with CAKI-1, in the test on COLO 205 and with HL-60 was > 100 µM (inactive) in each case. The GI50 in the test on HOP-92, in the test with IGROV-1, in the test on M14, in the test on MDA-MB-231, in the test with MDA-MB-435 and with NCI-H226 was > 100 µM (inactive) throughout. Besides, the GI50 in the test with NCI-H522, with OVCAR-4, with SF-539, with SK-MEL-5, in the test with SK-OV-3 and in the test with SNB-19 was > 100 µM (inactive) throughout. Also, in the test on U-251, the GI50 was > 100 µM (inactive).
For the compound `Cc1cc2c(cc1Cl)SC(c1ccccc1O)NS2(=O)=O` (stereo not drawn), the GI50 in the test with 786-0 was 34.7 µM (inactive); in the test on A498 it was > 100 µM (inactive); in the test with BT-549, 47.2 µM (inactive); with CAKI-1, 50.6 µM (inactive); in the test with COLO 205 it was 20.8 µM (inactive); in the test on EKVX, 56.9 µM (inactive). Moreover, the GI50 with HL-60 was 59.7 µM (inactive); in the test with HOP-92 it was 54.1 µM (inactive); in the test with IGROV-1, 42.4 µM (inactive); with M14, 57 µM (inactive); in the test on MDA-MB-231, 32.4 µM (inactive); in the test on MDA-MB-435 it was 45.7 µM (inactive). Further, the GI50 in the test on NCI-H226 was 86.5 µM (inactive); in the test on NCI-H522 it was 48.9 µM (inactive); with OVCAR-4, 63.7 µM (inactive); in the test on SF-539 it was 48.8 µM (inactive); in the test with SK-MEL-5, 42.7 µM (inactive); in the test on SK-OV-3, > 100 µM (inactive). The GI50 in the test with SNB-19 is 81.3 µM (inactive); in the test on U-251, 72.9 µM (inactive).
With `COc1cc(C(=O)N(C)N(C)C)cc(OC)c1OC`, the GI50 in the test on 786-0, in the test with A498, with BT-549, with CAKI-1, in the test with COLO 205 and in the test on EKVX was > 10 µM (inactive) in each case. Moreover, the GI50 with HL-60, in the test with HOP-92, in the test with IGROV-1, in the test on M14, with MDA-MB-231 and with MDA-MB-435 was > 10 µM (inactive) throughout. The GI50 with NCI-H226, in the test on NCI-H522, in the test with OVCAR-4, in the test with SF-539, in the test with SK-MEL-5 and in the test with SK-OV-3 was > 10 µM (inactive) each time. In addition, the GI50 with SNB-19 and in the test with U-251 was > 10 µM (inactive) in each case.
In the case of `Cc1cc(Br)cc(C)c1NC(=O)C(=O)Nn1c(S)nc2ccccc2c1=O`, the GI50 with 786-0, with A498, with BT-549, with CAKI-1, with EKVX and in the test with HL-60 was > 100 µM (inactive) each time. Also, the GI50 in the test with HOP-92, in the test on IGROV-1, in the test on M14, in the test on MDA-MB-231, with MDA-MB-435 and in the test with NCI-H226 was > 100 µM (inactive) throughout. Besides, the GI50 in the test on NCI-H522 was > 100 µM (inactive); in the test with OVCAR-4, 33.8 µM (inactive); in the test on SF-539 it was > 100 µM (inactive); with SK-MEL-5 it was > 100 µM (inactive); in the test with SK-OV-3, > 100 µM (inactive); in the test with SNB-19, 78.9 µM (inactive). Further, in the test with U-251, the GI50 was > 100 µM (inactive).
For `CC1(C)OCC(/C=C\C(O)CC2(C)OCCO2)CO1` (stereo not drawn), the GI50 with 786-0, in the test on A498, in the test on BT-549, in the test with CAKI-1, in the test on COLO 205 and in the test on EKVX was > 100 µM (inactive) throughout. Also, the GI50 in the test on HL-60, with HOP-92, with IGROV-1, in the test on M14, in the test on MDA-MB-231 and in the test with MDA-MB-435 was > 100 µM (inactive) throughout. Also, the GI50 in the test on NCI-H226, in the test with NCI-H522, with OVCAR-4, with SF-539, in the test on SK-MEL-5 and with SK-OV-3 was > 100 µM (inactive) throughout. For the same compound, the GI50 in the test on SNB-19 and with U-251 was > 100 µM (inactive) in each case.
Take `O=C1NC2(CCN(CCc3ccccc3)CC2)Oc2ccccc21`: the GI50 in the test on 786-0 was > 100 µM (inactive); in the test on A498, 68.1 µM (inactive); in the test on BT-549, 39 µM (inactive); with CAKI-1, > 100 µM (inactive); with COLO 205, 31.5 µM (inactive); in the test with EKVX, 69.2 µM (inactive). Further, the GI50 with HL-60 is 40.4 µM (inactive); in the test on HOP-92, 24.7 µM (inactive); with IGROV-1 it was > 100 µM (inactive); in the test on M14, 18.5 µM (inactive); with MDA-MB-231, 88.3 µM (inactive); with MDA-MB-435, 53.5 µM (inactive). The GI50 was 61.1 µM (inactive) in the test on NCI-H226; 95.1 µM (inactive) in the test on NCI-H522; > 100 µM (inactive) with OVCAR-4; > 100 µM (inactive) in the test with SF-539; 14.5 µM (inactive) with SK-MEL-5; > 100 µM (inactive) in the test with SK-OV-3. For the same compound, the GI50 is 85.3 µM (inactive) in the test on SNB-19 and 61.9 µM (inactive) in the test with U-251.

For orientation: GI50 means the concentration that inhibits growth by half.
